For 1 molecule, EC50 and IC50 results are on record in patent US20240423973A1, “COMPOUNDS, PHARMACEUTICAL COMPOSITIONS, AND METHODS FOR THE TREATMENT, PREVENTION, OR MANAGEMENT OF HYPERPROLIFERATIVE DISORDERS” (VINCERX PHARMA GMBH, priority 2021, published 2024).

One may read the EC50 as the midpoint of the concentration-response curve. A low value points to an effect from little substance. A word on the IC50: it is the midpoint of a concentration-inhibition curve.

For experiment [1], the system named is avb3. In words: EC50 [nM]. An excerpt:
Table printed on a drawing sheet, FIG. 4
Head of the field: EC50 [nM]
The patent's description of the figure: FIG. 4: avb3 binding of selected examples and EC50 values
First copying reader's note: EC50 values relate to the αvβ3 binding assay plotted next to the table; R^2 is the goodness of fit of the curve.
Where the first naming reader finds the target: description_of_the_figure: FIG. 4: avb3 binding of selected examples and EC50 values

Experiment [2] deals with NCI H292. In words: Cytotoxicity in vitro in the presence and absence of elastase (MTT assay). To be noted: NCI H292 cells, 72 h. The format is cell-based, human. Summed up: (§1)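 Read-out was MTT dye at 570 nm after 4 h reagent and overnight lysis, normalised to untreated cells. Compounds (10^−5–10^−13 M, triplicates) were applied alone or together with 10 nM elastase to cells pre-grown 24 h, then incubated 72 h at 37° C, 5% CO2.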
For orientation: Formazan colour is commonly taken as a measure of viable cells.

The test system of experiment [3] is 786-O. The experiment is described as above. Particulars: 786-O cells, 72 h. It counts as cell-based, human. Summed up:
as §1

Experiment [4] has as its system HT29. Described as above. The format is cell-based, human. To be noted: HT29 cells, 72 h. Summed up: as §1
The test system of experiment [5] is SUM149. Described as above. It counts as cell-based. To be noted: SUM149 cells, 72 h. Summed up:
as §1

Some results are limits rather than exact numbers.

In experiment [1], `CCCNC(=O)Nc1cccc(S(=O)(=O)Nc2cccc([C@@H](CC(=O)O)NC(=O)Nc3ccc(NC(=O)NCCC(=O)NCCCC[C@H](NC(=O)CCNC(=O)Nc4ccc(NC(=O)N[C@H](CC(=O)O)c5cccc(NS(=O)(=O)c6cccc(NC(=O)NCCC)c6)c5)cc4)C(=O)NCCOCCOCCOCCC(=O)N[C@@H](CC(=O)O)C(=O)N4CCC[C@H]4C(=O)N[C@H](C(=O)O[C@]4(CC)C(=O)OCc5c4cc4n(c5=O)Cc5c-4nc4ccccc4c5CC)C(C)C)cc3)c2)c1` [Compound A2] came in with an EC50 of 97 nM. For the same molecule, the IC50 in experiment [2] (compound alone (no elastase)) is 10 to 100 nM; in experiment [2] (with 10 nM elastase), 0.01 to 0.1 nM; in experiment [3] (compound alone (no elastase)), 10 to 100 nM; in experiment [3] (with 10 nM elastase), 0.01 to 0.1 nM; in experiment [4] (compound alone (no elastase)), above 100 nM; in experiment [4] (with 10 nM elastase), 0.01 to 0.1 nM. Moreover, the IC50 in experiment [5] (compound alone (no elastase)) was 10 to 100 nM; in experiment [5] (with 10 nM elastase) it was 0.01 to 0.1 nM.
